{"source": "patent US12358913B2", "about": "“Crystal of diarylthiohydantoin compound” (CHIA TAI TIANQING PHARMACEUTICAL GROUP CO., LTD., priority 2019, dated 2025)", "key": {"[1]": {"assay": "Pharmacokinetic test in male CD-1 mice, plasma by LC/MS/MS", "format": "in vivo", "conditions": "mouse, po, intragastric administration, 2 mg/kg", "protocol": "Taking male CD-1 mice as test animals, the drug concentrations in the plasma of the mice at different time points after intravenous and intragastric administration of the compound of formula I were determined by an LC/MS/MS method. This example aims to investigate the pharmacokinetic performance of the compound of formula I in mice and to evaluate the pharmacokinetic characteristics.\n2.2 Test Animals: 4 Healthy Adult Male CD-1 Mice, which were Divided into 2 Groups (2 Mice in Each Group) According to the Body Weight. Animals were Purchased from Shanghai Sippe-Bk Lab Animal Co., Ltd., and Animal Production License Number was SCXK (Shanghai) 2013-0016. 2.3 Drug Preparation\nAn appropriate amount of sample was weighed, and sequentially added with an appropriate amount of DMSO, PEG400 and water according to the volume ratio of 10:40:50, and the mixture was stirred and ultrasonicated to a clear state (0.4 mg/mL) for intravenous administration. […]\nLC/MS/MS method was used to determine the content of the test compound in the plasma of mice after intravenous and intragastric administration. The linear range of the method was 2.00-6000 nmol/L; plasma samples were analyzed after treatment with acetonitrile to precipitate proteins."}, "[2]": {"assay": "Tissue distribution test (plasma and brain) in male CD-1 mice", "format": "in vivo", "conditions": "intragastric administration, 2 mg/kg, 4 h", "protocol": "Taking male CD-1 mice as test animals, the drug concentrations in the plasma and brain of the mice after intragastric administration of the compound of formula I were determined by an LC/MS/MS method.\n2.2 Test Animals: 2 Healthy Adult Male CD-1 Mice. Animals were Purchased from Shanghai Sippe-Bk Lab Animal Co., Ltd.\nAn appropriate amount of sample was added into 0.5% CMC/0.2% Tween aqueous solution, and the mixture was stirred and ultrasonicated to a suspension state (0.4 mg/mL).\nTwo male CD-1 mice, after fasting overnight, were subjected to intragastric administration at a volume of 5 mL/kg and a dosage of 2 mg/kg.\nMale CD-1 mice, after intragastric administration of the compound of formula I, were subjected to 100 μL of blood collection by cardiac puncture at 4 h, and the blood was placed in tubes containing 2 μL of EDTA-K2 and centrifuged at 3000 g for 15 min to separate out 30 μL of plasma, which was stored at −60° C. Meanwhile, brain tissues were collected, washed, homogenized with 9-fold 15 mM PBS/MeOH (v: v, 2:1), and stored at −60° C. The animals were allowed to eat 4 h after administration.\nLC/MS/MS method was used to determine the content of test compound in the plasma and brain of mice after intragastric administration. The linear range of the method was 2.00-6000 nmol/L; plasma samples were analyzed after treatment with acetonitrile to precipitate proteins."}, "[3]": {"tested_on": "human prostate cancer LNCaP-FGC cells", "assay": "In vivo pharmacodynamic study on subcutaneous xenograft tumor model of human prostate cancer LNCaP-FGC cells", "parameters": "species or system CB-17 SCID mouse", "conditions": "for Relative tumor proliferation rate T/C / TGI: after 21 days of administration", "protocol": "Human prostate cancer LNCaP-FGC cells (ATCC, Manassas, VA) were cultured in vitro, in a monolayer way, in an RPMI1640 medium containing 10% fetal bovine serum at 37° C. and 5% CO2. Routine digestion treatment with pancreatin-EDTA was performed twice a week for passage. When the saturation degree of the cells is 80-90%, the cells were collected, counted and inoculated.\n0.2 mL (10×10^6) of LNCaP-FGC cells (10×10^6+Matrigel, 1:1) were inoculated subcutaneously into the right back of each CB-17 SCID mouse. The mice were divided into groups for administration when the mean tumor volume reached 100-150 mm^3.\nTumor diameters were measured twice weekly using a vernier caliper. The calculation formula for tumor volume was: V=0.5a×b^2, with a and b representing the long and short diameters of the tumor, respectively. The anti-tumor therapeutic effect of the compound was evaluated by TGI (%) or relative tumor proliferation rate T/C (%). TGI (%)=[(1−(average tumor volume of a treatment group at the end of administration−average tumor volume of the treatment group at the start of administration))/(average tumor volume of a vehicle control group at the end of treatment-average tumor volume of the vehicle control group at the start of treatment)]×100%. The calculation formula for relative tumor proliferation rate T/C (%) was as follows: T/C %=TRTV/CRTV×100% (TRTV: RTV of treatment group; CRTV: RTV of negative control group). Relative tumor volume (RTV) was calculated based on the results of tumor measurement. The calculation formula was: RTV=Vt/V0, wherein V0 was the average tumor volume measured at the time of grouping and administration (i.e., d0), Vt was the average tumor volume at a certain measurement, and the data of TRTV and CRTV were obtained on the same day.\nStatistical analysis included mean and standard error of mean (SEM) of tumor volume at each time point for each group. […] Comparison between two groups was analyzed using T-test, comparison among three or more groups was analyzed using one-way ANOVA. […] If there was […] in F values, Dunnet (2-sided) method was used for analysis. All data analysis was performed with SPSS 17.0. “P<0.05” was defined as a significant difference."}, "[4]": {"assay": "Hygroscopicity by dynamic vapor sorption (DVS)", "format": "physicochemical", "conditions": "25±1° C. and 80±2% RH", "protocol": "Instrument model: SMS DVS Advantage\nTest conditions: a sample (10-15 mg) of the crystal of the compound of formula I prepared in Example 2 was placed in a DVS sample tray for testing.\nThe detailed DVS parameters were as follows:\nBalancing: dm/dt=0.01%/min (shortest: 10 min, longest: 180 min)\nDrying: drying at 0% RH for 120 min\nRH (%) test gradient: 10%\nRange of RH (%) test gradient: 0%-90%-0%\nNote: ΔW % represents the moisture gain of the test compound at 25±1° C. and 80±2% RH."}, "[5]": {"assay": "Solid stability of the crystal, purity by HPLC", "format": "physicochemical", "excerpt": "References were made to the requirements in the “Guidelines for the Stability Test of APIs and Preparations” (Appendix XIX C of the Volume Two of the Chinese Pharmacopoeia, 2010 Edition) for the conditions and the method for the stability test of the crystal, and the stability of the crystalline solid under conditions of different influence factors was studied with the crystal prepared in Example 2 as a test sample.\nHigh performance liquid chromatography (HPLC): column: Waters xbridge shiled RP18 (150 mm*4.6 mm, 3.5 μm); PN: 186003045; wavelength: 228 nm; mobile phase A: pH 4.5, 5 mmol/L sodium acetate buffer solution (pH adjusted with phosphoric acid); mobile phase B: acetonitrile; elution mode: gradient elution."}}, "note": "Where “and” joins values, the source holds several entries; their conditions need not be identical. Equal values may be shown once.", "data": [{"smiles": "CCc1cc(=O)n2cc(N3C(=S)N(c4ccc(C#N)c(Cl)c4)C(=O)C3(C)C)cc(F)c2n1", "note": "[Compound of formula I, 2-chloro-4-(3-(2-ethyl-9-fluoro-4-oxo-4H-pyrido[1,2-a]pyrimidin-7-yl)-4,4-dimethyl-5-oxo-2-thioimidazolidin-1-yl)benzonitrile]", "values": [{"measurement": "bioavailability", "setting": "[1]", "result": 68.1, "unit": "%"}, {"measurement": "Brain-to-plasma concentration ratio", "setting": "[2]", "result": 0.0322}, {"measurement": "Concentration in brain", "setting": "[2]", "result": 265, "unit": "nmol/kg"}, {"measurement": "Concentration in plasma", "setting": "[2]", "result": 8.26, "unit": "µM"}, {"measurement": "Relative tumor proliferation rate T/C", "setting": "[3]; 10 mg/kg PO QD", "result": 43.93, "unit": "%"}, {"measurement": "TGI", "setting": "[3]; 10 mg/kg PO QD", "result": 62.75, "unit": "%"}, {"measurement": "Tolerance of the animals to the test compound", "setting": "[3]; 10 mg/kg and 20 mg/kg PO QD × 21 days", "result": "good tolerance"}, {"measurement": "Relative tumor proliferation rate T/C", "setting": "[3]; 20 mg/kg PO QD", "result": 32.37, "unit": "%"}, {"measurement": "TGI", "setting": "[3]; 20 mg/kg PO QD", "result": 76.16, "unit": "%"}]}, {"smiles": "CCc1cc(=O)n2cc(N3C(=S)N(c4ccc(C#N)c(Cl)c4)C(=O)C3(C)C)cc(F)c2n1", "note": "[crystal of the compound of formula I, 2-chloro-4-(3-(2-ethyl-9-fluoro-4-oxo-4H-pyrido[1,2-a]pyrimidin-7-yl)-4,4-dimethyl-5-oxo-2-thioimidazolidin-1-yl)benzonitrile]", "values": [{"measurement": "ΔW % (moisture gain)", "setting": "[4]", "result": 1.018, "unit": "%"}, {"measurement": "Purity of the crystal (stability)", "setting": "[5]; 75% RH, 40° C., 1 month", "result": 99.17, "unit": "%"}, {"measurement": "Purity of the crystal (stability)", "setting": "[5]; 75% RH, 40° C., 2 months", "result": 99.14, "unit": "%"}, {"measurement": "Purity of the crystal (stability)", "setting": "[5]; 75% RH, 40° C., 3 months", "result": 99.16, "unit": "%"}, {"measurement": "Purity of the crystal (stability)", "setting": "[5]; 75% RH, 40° C., 10 days", "result": 99.15, "unit": "%"}, {"measurement": "Purity of the crystal (stability)", "setting": "[5]; 75% RH, 60° C., 1 day", "result": 99.14, "unit": "%"}, {"measurement": "Purity of the crystal (stability)", "setting": "[5]; 75% RH, 60° C., 10 days", "result": 99.16, "unit": "%"}, {"measurement": "Purity of the crystal (stability)", "setting": "[5]; 92.5% RH, room temperature, 10 days", "result": "99.18% and 99.14%"}, {"measurement": "Purity of the crystal (stability)", "setting": "[5]; Initial test sample", "result": 99.17, "unit": "%"}, {"measurement": "Purity of the crystal (stability)", "setting": "[5]; wrapped with tin foil paper, exposed to visible light of 1200000 Lux and UV of 200 W at room temperature", "result": 99.13, "unit": "%"}]}]}
